This note sets out measurements from PubChem BioAssay AID192 (DTP/NCI, 2004).

The test system of this assay is BDF1 mice, B16 melanoma ip, median survival T/C. Kind of assay: NCI In Vivo Anticancer Drug Screen. Data for tumor model B16 Melanoma (intraperitoneal) in B6D2F1 (BDF1) mice. The following applies: endpoint: median survival time, higher = longer survival. The essentials:
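Survival or tumor size is measured after treatment of tumor-bearing mice and normalised to the vehicle-treated control group.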

Setting [1] is: dose: 0.8 mg/kg/injection, schedule: Q01DX009 (ip), vehicle: saline.
[2] abbreviates: dose: 25.0 mg/kg/injection, schedule: Q01DX009 (ip), vehicle: Klucel (hydroxypropylcellulose) (HPC).
Where [3] appears, read: dose: 50.0 mg/kg/injection, schedule: Q01DX009 (ip), vehicle: Klucel (hydroxypropylcellulose) (HPC).
Where [4] appears, read: dose: 100.0 mg/kg/injection, schedule: Q01DX009 (ip), vehicle: Klucel (hydroxypropylcellulose) (HPC).
Where [5] appears, read: dose: 100.0 mg/kg/injection, schedule: Q01DX009 (ip), vehicle: saline with Tween-80.
The mark [6] stands for this setting: dose: 200.0 mg/kg/injection, schedule: Q01DX009 (ip), vehicle: saline with Tween-80.
[7] abbreviates: dose: 25.0 mg/kg/injection, schedule: Q01DX009 (ip), vehicle: saline with Tween-80.
The mark [8] stands for this setting: dose: 50.0 mg/kg/injection, schedule: Q01DX009 (ip), vehicle: saline with Tween-80.
The mark [9] stands for this setting: dose: 100.0 mg/kg/injection, schedule: Q04DX003 (ip), vehicle: Klucel (hydroxypropylcellulose) (HPC).
[10] abbreviates: dose: 200.0 mg/kg/injection, schedule: Q04DX003 (ip), vehicle: Klucel (hydroxypropylcellulose) (HPC).
Where [11] appears, read: dose: 400.0 mg/kg/injection, schedule: Q04DX003 (ip), vehicle: Klucel (hydroxypropylcellulose) (HPC).
Where [12] appears, read: dose: 0.75 mg/kg/injection, schedule: Q01DX009 (ip), vehicle: saline.
Where [13] appears, read: dose: 1.5 mg/kg/injection, schedule: Q01DX009 (ip), vehicle: saline.
The mark [14] stands for this setting: dose: 3.0 mg/kg/injection, schedule: Q01DX009 (ip), vehicle: saline.
The mark [15] stands for this setting: dose: 200.0 mg/kg/injection, schedule: Q01DX009 (ip), vehicle: Klucel (hydroxypropylcellulose) (HPC).
The mark [16] stands for this setting: dose: 400.0 mg/kg/injection, schedule: Q01DX009 (ip), vehicle: Klucel (hydroxypropylcellulose) (HPC).

Values joined by “and” are separate entries in the source; they are usually repeats but may differ in a detail not shown here. Identical values can stand only once. Toxic doses and inconclusive results are not listed.

Take `CCC1(O)CC2CN(CCc3c([nH]c4ccccc34)C(C(=O)OC)(c3cc4c(cc3OC)N(C)C3C(O)(C(=O)NCCO)C(O)C5(CC)C=CCN6CCC43C65)C2)C1` (stereo not drawn): the T/C reads like this: (dose: 0.2 mg/kg/injection, schedule: Q01DX009 (ip), vehicle: saline) 164 % of control; (dose: 0.22 mg/kg/injection, schedule: Q01DX009 (ip), vehicle: water) 121 % of control; (dose: 0.36 mg/kg/injection, schedule: Q01DX009 (ip), vehicle: water) 162 % of control; (dose: 0.4 mg/kg/injection, schedule: Q01DX009 (ip), vehicle: saline) 191 % of control; (dose: 0.6 mg/kg/injection, schedule: Q01DX009 (ip), vehicle: water) 161 % of control; under setting [1], 218 % of control. The T/C reads like this: (dose: 1.0 mg/kg/injection, schedule: Q04DX003 (ip), vehicle: saline) 155 % of control; (dose: 1.04 mg/kg/injection, schedule: Q01DX001 (ip), vehicle: water) 121 % of control; (dose: 1.44 mg/kg/injection, schedule: Q04DX003 (ip), vehicle: water) 155 % of control and 179 % of control; (dose: 1.67 mg/kg/injection, schedule: Q04DX003 (ip), vehicle: saline) 161 % of control; (dose: 2.4 mg/kg/injection, schedule: Q04DX003 (ip), vehicle: water) 155 % of control and 206 % of control; (dose: 2.9 mg/kg/injection, schedule: Q01DX001 (ip), vehicle: water) 122 % of control. The T/C by setting is: (dose: 4.0 mg/kg/injection, schedule: Q04DX003 (ip), vehicle: water) 87 % of control; (dose: 648.0 micrograms/kg/injection, schedule: Q04DX003 (ip), vehicle: saline) 163 % of control; (dose: 1080.0 micrograms/kg/injection, schedule: Q04DX003 (ip), vehicle: saline) 167 % of control; (dose: 1800.0 micrograms/kg/injection, schedule: Q04DX003 (ip), vehicle: saline) 156 % of control and 182 % of control; (dose: 3000.0 micrograms/kg/injection, schedule: Q04DX003 (ip), vehicle: saline) 166 % of control and 179 % of control.

As to `Clc1ccc(Cl)c(NNc2cc(Cl)ccc2Cl)c1`, the T/C reads like this: under setting [2], 101 % of control; under setting [3], 95 % of control; under setting [4], 101 % of control.

As for `O=C(O)CC(NCc1ccccc1)C(=O)O` (stereo not drawn), the T/C is, setting by setting: under setting [5], 97 % of control; under setting [6], 102 % of control; (dose: 400.0 mg/kg/injection, schedule: Q01DX009 (ip), vehicle: saline with Tween-80) 100 % of control.

For the compound `CN1N=C(N)c2cn(C3OC(COP(=O)(O)O)C(O)C3O)c3ncnc1c23` (stereo not drawn), the T/C runs as follows: (dose: 6.25 mg/kg/injection, schedule: Q01DX009 (ip), vehicle: water) 89 % of control and 92 % of control; (dose: 12.5 mg/kg/injection, schedule: Q01DX009 (ip), vehicle: water) 90 % of control; (dose: 25.0 mg/kg/injection, schedule: Q01DX009 (ip), vehicle: water) 93 % of control; (dose: 50.0 mg/kg/injection, schedule: Q01DX009 (ip), vehicle: water) 96 % of control; (dose: 100.0 mg/kg/injection, schedule: Q01DX009 (ip), vehicle: water) 88 % of control.

Turning to `CCOC(=O)Nc1nccs1`, the T/C is 97 % of control under setting [7], 89 % of control under setting [8], 89 % of control under setting [5] and 89 % of control under setting [6].

For the compound `CCc1ccc(NC(=O)Nc2ccccc2C)cc1`, the T/C was 96 % of control under setting [9], 96 % of control under setting [10] and 100 % of control under setting [11].

As for `CCC[CH2][Hg][Cl]`, the T/C runs as follows: (dose: 0.75 mg/kg/injection, schedule: Q01DX009 (ip), vehicle: saline with Tween-80) 91 % of control; (dose: 1.5 mg/kg/injection, schedule: Q01DX009 (ip), vehicle: saline with Tween-80) 92 % of control.

For `CCCCCCCCCCCc1n(Cc2ccccc2)cc[n+]1C`, the T/C under setting [12] was 86 % of control, the T/C under setting [13] was 90 % of control and the T/C under setting [14] was 97 % of control.

On to `O=C(COc1ccc(Cl)cc1Cl)Nc1ccc(F)cc1`, for which the T/C is 110 % of control under setting [7], 91 % of control under setting [8] and 86 % of control under setting [5].

Take `COc1ccc(C(C)=O)cc1N`: the T/C under setting [9] is 100 % of control, the T/C under setting [10] was 97 % of control and the T/C under setting [11] is 95 % of control.

With `Cc1c(N)nc([C@H](CC(N)=O)NC[C@H](N)C(N)=O)nc1C(=O)N[C@H](C(=O)N[C@H](C)[C@@H](O)CC(=O)N[C@H](C(=O)NC(O[C@@H]1O[C@@H](C)[C@@H](N)[C@@H](O)[C@H]1O)C(O)c1nc(-c2nc(C(=O)NCCCCN)cs2)cs1)[C@@H](C)O)[C@@H](O[C@@H]1O[C@@H](CO)[C@@H](O)[C@H](O)[C@@H]1O[C@H]1O[C@H](CO)[C@@H](O)[C@H](OC(N)=O)[C@@H]1O)c1c[nH]cn1` (stereo partly drawn), the T/C is 152 % of control under setting [1]; 152 % of control (dose: 1.6 mg/kg/injection, schedule: Q01DX009 (ip), vehicle: saline); 150 % of control (dose: 3.2 mg/kg/injection, schedule: Q01DX009 (ip), vehicle: saline).

For `c1ccc2cc(-c3csc4ccccc34)ccc2c1`, the T/C under setting [9] is 91 % of control, the T/C under setting [10] is 97 % of control and the T/C under setting [11] is 102 % of control.

As for `C=C(C)C1C2CC3(C)C4(CO4)C4OC4C3(O)C1C(=O)O2` (stereo not drawn), the T/C is 102 % of control (dose: 0.07 mg/kg/injection, schedule: Q01DX009 (ip), vehicle: Klucel (hydroxypropylcellulose) (HPC)); 104 % of control (dose: 0.15 mg/kg/injection, schedule: Q01DX009 (ip), vehicle: Klucel (hydroxypropylcellulose) (HPC)); 106 % of control (dose: 0.3 mg/kg/injection, schedule: Q01DX009 (ip), vehicle: Klucel (hydroxypropylcellulose) (HPC)); 98 % of control (dose: 0.6 mg/kg/injection, schedule: Q01DX009 (ip), vehicle: Klucel (hydroxypropylcellulose) (HPC)); 101 % of control (dose: 1.2 mg/kg/injection, schedule: Q01DX009 (ip), vehicle: Klucel (hydroxypropylcellulose) (HPC)).

In the case of `NC(=O)c1ncn(C2OC(CO)C(O)C2O)n1` (stereo not drawn), the T/C was 90 % of control (dose: 20.0 mg/kg/injection, schedule: Q01DX009 (ip), vehicle: saline); 102 % of control (dose: 40.0 mg/kg/injection, schedule: Q01DX009 (ip), vehicle: saline); 102 % of control (dose: 50.0 mg/kg/injection, schedule: Q04DX003 (ip), vehicle: Klucel (hydroxypropylcellulose) (HPC)); 97 % of control (dose: 80.0 mg/kg/injection, schedule: Q01DX009 (ip), vehicle: saline); 95 % of control under setting [9]; 108 % of control (dose: 160.0 mg/kg/injection, schedule: Q01DX009 (ip), vehicle: saline). The T/C under setting [10] is 98 % of control.

Take `CC(=O)SCCC(=O)O`: the T/C was 107 % of control under setting [12], 112 % of control under setting [13] and 114 % of control under setting [14].

`COc1ccc(NC(=S)NNC(=S)NNc2ccccc2)cc1`: the T/C is, setting by setting: under setting [9], 97 % of control; under setting [10], 93 % of control; under setting [11], 86 % of control.

As to `Cc1ccc(N=CN(C)Sc2ccc(C(C)(C)C)cc2)c(C)c1`, the T/C was 100 % of control under setting [2], 98 % of control under setting [3], 95 % of control under setting [4] and 94 % of control under setting [15].

On to `C1=CCOCOC1`, for which the T/C (dose: 12.5 mg/kg/injection, schedule: Q04DX003 (ip), vehicle: saline) is 96 % of control; the T/C (dose: 25.0 mg/kg/injection, schedule: Q04DX003 (ip), vehicle: saline) is 107 % of control; the T/C (dose: 50.0 mg/kg/injection, schedule: Q04DX003 (ip), vehicle: saline) was 93 % of control.

`O=C1c2ccccc2C(=O)c2c1ccc(C(=O)O)c2-c1ccc2ccccc2c1`: the T/C was 103 % of control under setting [4], 99 % of control under setting [15] and 96 % of control under setting [16].

`CCC(C)C1CCCCC1` (stereo not drawn): the T/C under setting [4] was 91 % of control, the T/C under setting [15] was 108 % of control and the T/C under setting [16] is 98 % of control.
